This is an account of results in PubChem BioAssay AID1508591.

Structures are written as SMILES.

For the series the following is noted: rat; liver microsomes; pH 7.4; 15.0 min; 1.0 µM.
Compound `COCCNc1ncnc2onc(-c3ccc(F)cc3)c12` returned a half-life greater than 30 min.
`NC(=O)C1CCN(c2nc(-c3ccccc3Br)cs2)CC1` came in with a half-life of 2.86 min.
Consider `O=C(Nc1ccc(Oc2ccnc3[nH]ccc23)c(F)c1)c1cccn(-c2ccc(F)cc2)c1=O`, for which the half-life worked out at 13.1 min.
In the case of `COc1ccc(-n2nc3c(N4CCCC(C(=O)NCCc5ccc(C)cc5)C4)nnc(C)c3c2C)cc1` (stereo not given), the half-life was 2.6 min.
The compound `CCc1ccc(C2N=C(N)Nc3nc4ccccc4n32)cc1` (stereo not given) registered a half-life of 5.62 min.
In the case of `CCOC(=O)c1ccc(NC(=O)CSc2nc3c(cc2C#N)N2CCC3CC2)cc1`, the half-life was determined as 4.26 min.
To `CCn1nc(C2CCN(C(=O)CCO)CC2)nc1-c1cnc(N)c(-c2nnc(C(C)(C)C)o2)n1` belongs greater than 30 min.
The compound `CCCCCCCc1c(C)nc(N2CCOCC2)[nH]c1=O` displayed a half-life of 3.5 min.
As for `Cc1ccc(S(=O)(=O)Nc2ccccc2C(=O)Nc2nc(-c3ccccc3)cs2)cc1`, the half-life was determined as 2.4 min.
As for `Cc1ccc(-c2cc(C(=O)Nc3ccc(-n4cncn4)cc3)c3ccccc3n2)cc1C`, the half-life is 23 min.
Compound `Cc1ccc2oc(NC3=NC(c4[nH]ncc4Cl)C4=C(CCCC4=O)N3)nc2c1` (stereo not given) returned a half-life of 1.7 min. Against the preceding compound, the half-life is about 14-fold lower.
Compound `CC(C)(C)c1ccc(-c2ccc(=O)n(CC(=O)NCCc3ccccc3)n2)cc1` showed a half-life of 1.6 min. The half-life values of the last two compounds are within 1.5-fold of each other.
As for `COc1ccc2[nH]c(=O)c(-c3noc(-c4ccc(F)cc4)n3)cc2c1`, the half-life is greater than 30 min.
For `NC(=O)c1cnc(N[C@@H]2CCCC[C@@H]2N)nc1Nc1cccc(-n2nccn2)c1`, the half-life was greater than 30 min.
In turn, `CC1CCN(S(=O)(=O)c2ccc3c(c2)C(C)(C)C(=O)N3CC(=O)NCc2ccco2)CC1` returned a half-life of 1.8 min.
In turn, `CCOC(=O)c1[nH]c(C)c(CCC(=O)N2CCN(c3cc(C)ccc3C)CC2)c1C` returned a half-life of 2.27 min. The half-life values of the last two compounds are within 1.5-fold of each other.
Take `O=C(Nc1ccc2c(N3CCCCC3)ncnc2c1)c1cc(F)cc(F)c1`: the half-life was determined as 1.5 min.
Compound `COc1oc(-c2cccc3ccccc23)nc1C(=O)O` gave a half-life greater than 30 min.
`Cc1ccc(S(=O)(=O)c2cnc(SC(C)C(=O)Nc3ccccc3)[nH]c2=O)cc1` (stereo not given) returned a half-life of 10.7 min.
The compound `CC(C)Oc1cccc(-c2ccnc(N3CCC(C(N)=O)CC3)n2)c1` gave a half-life of 11.6 min.
To `Cc1cc(N[S+](=O)([O-])c2ccc(NC(=O)Cc3ccc(F)c(F)c3)cc2)no1` belongs greater than 30 min; to `CCc1oc2ccccc2c1C(=O)c1cc(Br)c(O)c(Br)c1`, 9.75 min.
Compound `CNc1nc(-c2cccc3ccccc23)ccc1C#N` yielded a half-life of 5.7 min.
Compound `CC(=O)c1c(C)[nH]c(C(=O)Nc2cccc([S+](=O)([O-])Nc3ccccc3C)c2)c1C` returned a half-life of 4.4 min. The half-life values of the last two compounds are within 1.5-fold of each other.
With `O=C(Nc1ccc(S(=O)(=O)Nc2nccs2)cc1)c1cccnc1`, the half-life was greater than 30 min.
To `CCc1ccccc1Nc1ncnc2c1cnn2-c1ccc(Cl)cc1` belongs 7.13 min; to `CC1(C)CCC(CN2CCN(c3ccc(C(=O)NS(=O)(=O)c4ccc(NCC5CCOCC5)c([N+](=O)[O-])c4)c(Oc4cnc5[nH]ccc5c4)c3)CC2)=C(c2ccc(Cl)cc2)C1`, greater than 30 min; to `CCOc1ccc(CCNC(=O)c2cc3ccccc3n2Cc2cccc(C)n2)cc1OCC`, 1.6 min.
Regarding `Cc1ccc2c(c1)[nH]c1c(N3CCN(Cc4ccccc4)CC3)ncnc12`, the half-life was 7.49 min.
To `O=C(Nc1ccc(N2CCN(c3ncccc3C(F)(F)F)CC2)nc1)c1cccs1` belongs 10.3 min; to `O=C(NC1CCCc2c1[nH]c1c(Cl)cccc21)c1ccc2c(c1)OCO2` (stereo not given), 12.8 min; to `O=C(Nc1ccc(-c2ccccc2)cc1)[C@H](Cc1ccc(O[S+](=O)([O-])c2cccc3cnccc23)cc1)N[S+](=O)([O-])c1cccc2cnccc12`, 3.1 min.
`Cc1nc(NCc2ccco2)nc2c1C(=O)CC(C)C2` (stereo not given) registered a half-life of 2.7 min.
The compound `NC(=O)C1CCN(c2ncc(-c3cccc(N4CCCC4)c3)s2)CC1` showed a half-life of 15 min.
Compound `C[C@@H](O)CNC(C)(C)CC(=O)N[C@@H]1CCc2ccccc2N(Cc2ccc(-c3ccccc3-c3nn[nH]n3)cc2)C1=O` yielded a half-life greater than 30 min.
